Results published in patent US7671028B2, “Peptides that antagonize FPR class receptor mediated signaling” (POSTECH Foundation, priority 2004, dated 2010).
Where a SMILES comes first, the peptide text is derived from it. Where no end group is shown, it is not given here. [ ]: non-standard residue; d: D form.

The compounds below were run against T1, FPRL1 (Homo sapiens, UniProt P25090) (assay: WKYMVm-induced [Ca2+]i increase in FPRL1-expressing RBL-2H3 cells (fura-2)). Settings: inhibition of FPRL1 agonist-induced intracellular calcium increase; peptide added before agonist.
T1 construct: expressed in transfected cells; host or cells: RBL-2H3 (rat basophilic leukaemia) cells
T1 sequence (P25090 1-351): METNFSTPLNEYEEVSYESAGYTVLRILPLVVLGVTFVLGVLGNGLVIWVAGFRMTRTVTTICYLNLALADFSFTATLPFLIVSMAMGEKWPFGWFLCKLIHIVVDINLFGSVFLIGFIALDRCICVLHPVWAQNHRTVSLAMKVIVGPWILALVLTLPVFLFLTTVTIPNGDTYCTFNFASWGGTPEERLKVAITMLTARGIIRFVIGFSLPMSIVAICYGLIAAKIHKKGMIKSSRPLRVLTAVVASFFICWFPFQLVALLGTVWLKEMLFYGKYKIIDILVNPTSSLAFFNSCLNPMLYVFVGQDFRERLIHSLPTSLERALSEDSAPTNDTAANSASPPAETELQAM
Type: cell-based
Method: FIGS. 3A-3B show effects of WRW^4 (SEQ ID NO:4) on the WKYMVm (SEQ ID NO:3)-induced [Ca^2+]i rise in FPRL1 expressing RBL-2H3 cells. Fura-2-loaded FPRL1-expressing RBL-2H3 cells were stimulated with vehicle or WRW^4 (SEQ ID NO:4) (10 μM) and then with WKYMVm (SEQ ID NO:3) (10 nM); or FPRL1-expressing RBL-2H3 cells were sensitized with DNP-specific IgE, loaded with fura-2, and activated with the antigen DNP-HSA (1 μg/ml). The changes in 340 nm/380 nm were monitored. The results are representative of three independent experiments (A). Cells were stimulated with various concentrations of WRW^4 (SEQ ID NO:4) prior to adding 10 nM of WKYMVm (SEQ ID NO:3) or 1 μg/ml of DNP-HSA. Peak levels of [Ca^2+]i increase were monitored. The results shown are the means±SE of four independent experiments (B).
Intracellular calcium concentration ([Ca^2+]i) levels were determined by Grynkiewicz's method using fura-2/AM (25). Briefly, prepared cells were incubated with 3 μM fura-2/AM at 37° C. for 50 min in fresh serum free RPMI 1640 medium with continuous stirring. For DNP-HSA stimulation, RBL-2H3 cells were sensitized with 1 μg/ml mouse DNP-specific IgE overnight prior to fura-2 loading (26), and 2×10^6 cells were aliquoted for each assay in Ca^2+ free Locke's solution (154 mM NaCl, 5.6 mM KCl, 1.2 mM MgCl2, 5 mM HEPES, pH 7.3, 10 mM glucose, and 0.2 mM EGTA). The fluorescence changes at excitation wavelengths of 340 nm and 380 nm and a common emission wavelength of 500 nm were measured, and the calibrated fluorescence ratio was converted to [Ca^2+]i.
The stimulation of FPRL1 by WKYMVm (SEQ ID NO:3) elicited a [Ca^2+]i increase in FPRL1-expressing RBL-2H3 cells (FIG. 3A). To investigate whether the inventive peptides inhibited WKYMVm (SEQ ID NO:3)-induced [Ca^2+]i increase, we stimulated fura-2 loaded FPRL1-expressing RBL-2H3 cells with various concentrations of WRW^4 (SEQ ID NO:4), and subsequently stimulated with effective concentration of WKYMVm (SEQ ID NO:3). […] To confirm specific inhibition by WRW^4 (SEQ ID NO:4) on FPRL1-induced signaling, we examined the effect of WRW^4 (SEQ ID NO:4) on another extracellular signal-induced [Ca^2+]i increase. FcεRI cross-linking has been reported to induce a [Ca^2+]i increase in RBL-2H3 cells (26). Stimulation of FPRL1-expressing RBL-2H3 cells (sensitized with 1 μg/ml mouse DNP-specific IgE) with 1 μg/ml DNP-HSA caused a dramatic increase in [Ca^2+]i (FIG. 3A).
Methods and principles of assaying for the effects of a set of diverse peptides on the intracellular concentration of calcium when the peptides are contacted with the cells bearing FPRL1 before the FPRL1 agonist is added is described in Example 1.5 above, and further details of initial experimentation using the peptides is described in Example 2.2.
In the case of `N=C(N)NCCC[C@H](NC(=O)[C@@H](N)Cc1c[nH]c2ccccc12)C(=O)N[C@@H](Cc1c[nH]c2ccccc12)C(N)=O` [SEQ ID NO:7] (H-Trp-Arg-Trp-NH2), the IC50 is reported as over 10 µM.
With `NC(=O)[C@@H](Cc1c[nH]c2ccccc12)NC(=O)[C@H](Cc1c[nH]c2ccccc12)NC(=O)[C@H](Cc1c[nH]c2ccccc12)NC(=O)[C@H](Cc1c[nH]c2ccccc12)NC(=O)[C@H](Cc1c[nH]c2ccccc12)NC(=O)[C@@H](N)Cc1c[nH]c2ccccc12` [SEQ ID NO:32] (H-WWWWW[dW]-NH2) the IC50 was over 10 µM.
`N=C(N)NCCC[C@H](NC(=O)[C@@H](N)Cc1c[nH]c2ccccc12)C(=O)N[C@@H](Cc1c[nH]c2ccccc12)C(=O)N[C@@H](Cc1c[nH]c2ccccc12)C(N)=O` [SEQ ID NO:34] (H-WRWW-NH2) gave an IC50 of over 10 µM.
For `NC(=O)[C@@H](Cc1c[nH]c2ccccc12)NC(=O)[C@H](Cc1c[nH]c2ccccc12)NC(=O)[C@H](Cc1c[nH]c2ccccc12)NC(=O)[C@@H](N)Cc1c[nH]c2ccccc12` [SEQ ID NO:35] (H-WWW[dW]-NH2), the IC50 was over 10 µM.
`N=C(N)NCCC[C@H](N)C(=O)N[C@@H](Cc1c[nH]c2ccccc12)C(=O)N[C@@H](Cc1c[nH]c2ccccc12)C(=O)N[C@H](Cc1c[nH]c2ccccc12)C(N)=O` [SEQ ID NO:36] (H-RWW[dW]-NH2) showed an IC50 of over 10 µM.
For `CSCC[C@H](NC(=O)[C@H](Cc1c[nH]c2ccccc12)NC(=O)[C@H](Cc1c[nH]c2ccccc12)NC(=O)[C@H](CCCNC(=N)N)NC(=O)[C@H](Cc1c[nH]c2ccccc12)NC(=O)[C@H](N)Cc1c[nH]c2ccccc12)C(N)=O` [wWRWWM] (H-[dW]WRWWM-NH2), the IC50 was 0.0082 ± 0.0006 µM.
With “H-WRWWWW-NH2 [SEQ ID NO:4, Trp-Arg-Trp-Trp-Trp-Trp-CONH2]” the IC50 was 1 ± 0.21 µM.
For WRRWWW-NH2 [SEQ ID NO:33], the IC50 was over 10 µM.
For WWWWWW-NH2 [SEQ ID NO:31], the IC50 was over 10 µM.

The compounds below were run on human neutrophils (assay: Superoxide generation in human neutrophils (cytochrome c reduction)). Settings: agonist alone, concentration-dependent.
Type: cell-based
Method: FIGS. 7A-7D show effects of WRW^4 (SEQ ID NO:4) on the Aβ42-induced superoxide generation and chemotaxis in human neutrophils. […] Cytochrome c reduction was monitored, as described in EXAMPLES. The results shown are representative of four independent experiments (A, B). Chemotaxis assays were performed using a modified Boyden chamber assay, as described in EXAMPLES. […] The data are presented as mean±SE of three independent experiments each performed in duplicate (C, D).
Superoxide anion generation was determined by measuring cytochrome c reduction using a microtiter 96 well plate ELISA reader (Bio-Tekinstruments, EL312e, Winooski, Vt.) as previously described (23). Human neutrophils (1×10^6 cells/100 μl of RPMI 1640 medium per well of a 96-well plate) were preincubated with 50 μM cytochrome c at 37° C. for 1 min and then incubated with the indicated concentrations of peptides. Superoxide generation was determined for the change in light absorption at 550 nm over 5 minutes at 1 min intervals.
Superoxide generation is one of the important functions of phagocytic leukocytes like neutrophils (28).
With “Aβ42: amyloid β42 peptide, cleavage fragment of amyloid precursor protein, endogenous ligand for FPRL1” the “peptide concentration of maximal superoxide generating effect” value was 40 µM.
